This is an account of results in patent US9050346B2, “Bromodomain inhibitors” (AbbVie Inc., priority 2013, dated 2015).

The target in test [1] is T1, BRD4 (BDI_K57-E168) (Homo sapiens, UniProt O60885).
T1 construct: BD1: amino acids K57-E168; made in house
As to the kind of experiment: TR-FRET bromodomain binding assay, BRD4 first bromodomain. The note with it: His-tagged BD1, 100 nM Alexa647 probe; Ki calculated from IC50; dilution protocol A-G. The method, boiled down:
(§1)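 His-tagged BRD4 BD1 (K57-E168) or BD2 (8 nM) with Eu-anti-His antibody and Alexa647-labeled BET-inhibitor probe (100 nM for BDI, 30 nM for BDII), pH 6.0 phosphate buffer, 2% DMSO, 1 h at room temperature. TR-FRET (Ex 340, Em 495/520); IC50 by 4-parameter fit, converted to Ki using probe Kd and concentration.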

The subject of test [2] is breast cancer cell line MX-1. In words: MX-1 cell line proliferation assay (3-day, Cell Titer Glo). In kind it is cell-based. Particulars: Homo sapiens, MX1, MX-1 cells, 72 h, top concentration 3 μM, read-out: Cellular proliferation: EC50. Summed up: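 MX-1 cells, 5000/well in RPMI 1640 with 10% FBS, adhered overnight, then treated 3 days with compound at final 3 to 0.0001 μM (3-fold steps). Cell Titer Glo luminescence normalized to DMSO-treated cells; EC50 from sigmoidal fit.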
For orientation: ATP-based viability assays read luminescence as a measure of living cells.

Test [3] relates to LPS induced IL-6 production. In words: LPS (lipopolysaccharide) induced IL-6 production mouse assay. In kind it is in vivo. The note with it: 3 mg/kg oral, 1 h before LPS 2.5 mg/kg i.p.; serum IL-6 2 h after LPS; SCID female mice; all p<0.05. As to the method:
Compounds of the Examples listed in Table 2 were assayed for their ability to inhibit LPS (lipopolysaccharide) induced IL-6 (Interleukin-6) production in mice. Fox Chase SCID® female mice (Charles Rivers Labs, 5 per group) received an intraperitoneal challenge of lipopolysaccharide (2.5 mg/kg, L2630 E. coli 0111:B4) one hour after oral administration of compounds. Mice were euthanized 2 hours after lipopolysaccharide injection, blood was removed by cardiac puncture, and then the serum harvested from the blood samples was frozen at −80° C. On the day of the assay the serum samples were brought to room temperature and then diluted 1:20 in phosphate-buffered saline containing 2% bovine serum albumin. Interleukin-6 measurements were performed using a cytokine assay from Meso Scale Discovery (Gaithersburg, Md.) for mouse serum analysis according to the manufacturer's protocol and read on a SECTOR Imager 6000 (Meso Scale Discovery, Gaithersburg, Md.) instrument. Statistical analysis was performed using Prism software (version 5.0) incorporating Dunnett's one way ANOVA. The IL-6 mean and standard deviation of the group of vehicle treated animals were compared with the IL-6 mean and standard deviation of the group treated with drug. A p value<0.05 means that there is less than a 5% probability that the mean values in the two groups are equal.
Xenograft Tumor Growth Inhibition Assay

Test [4] has as its target T2, BRD4 (BDII_E352-M457) (Homo sapiens, UniProt O60885).
T2 construct: made in house
In words: TR-FRET bromodomain binding assay, BRD4 second bromodomain. Summed up: as §1
A general note: TR-FRET usually uses a lanthanide donor and a delayed reading to cut background.

pEC50, pKi: −log10 of the molar value.

The term pKi denotes −log10 of the Ki, conventionally taken in molar units. On to `COCCNC(=O)c1cc2c(-c3ccccc3Oc3ccccc3)[nH]c(C)c2c(=O)[nH]1` [Example 29, N-(2-methoxyethyl)-3-methyl-4-oxo-1-(2-phenoxyphenyl)-4,5-dihydro-2H-pyrrolo[3,4-c]pyridine-6-carboxamide], for which the values for the negative-log Ki (pKi) in test [1] and in test [4] were 7.97 and 7.33, respectively. Moreover, the pEC50 in test [2] was 6.94. Besides, the “% inhibition of LPS induced IL-6 production at 3 mg/kg” value (from here on “% inhibition”) in test [3] worked out at 40%.
For `CCCNC(=O)c1cc2c(-c3cc(N)ccc3Oc3ccc(F)cc3F)[nH]c(C)c2c(=O)[nH]1` [Example 43, 1-[5-amino-2-(2,4-difluorophenoxy)phenyl]-3-methyl-4-oxo-N-propyl-4,5-dihydro-2H-pyrrolo[3,4-c]pyridine-6-carboxamide] the same measures were 7.80, 7.60, 6.82 and 39%.
In the case of `Cc1[nH]c(-c2cc(C#N)ccc2Oc2ccc(F)cc2F)c2cn[nH]c(=O)c12` [Example 82, 4-(2,4-difluorophenoxy)-3-(7-methyl-1-oxo-2,6-dihydro-1H-pyrrolo[3,4-d]pyridazin-5-yl)benzonitrile], the values for the pKi in test [1] and in test [4] were 7.44 and 6.45, respectively. In test [2], the pEC50 is 6.78. Besides, the “% inhibition” value in test [3] turned out to be 44%.
Take `COC(=O)c1cc2c(-c3cc(N)ccc3Oc3ccccc3)[nH]c(C)c2c(=O)[nH]1` [Example 2, methyl 1-(5-amino-2-phenoxyphenyl)-3-methyl-4-oxo-4,5-dihydro-2H-pyrrolo[3,4-c]pyridine-6-carboxylate]: the negative-log Ki (pKi) in test [1] is 8.83; in test [4], 7.67. In addition, the pEC50 in test [2] is 7.62. Further, the “% inhibition” value in test [3] is recorded as 25%.
For `Cc1[nH]c(-c2cc(N)ccc2Oc2ccccc2)c2c1C(=O)NCC2` [Example 94, 1-(5-amino-2-phenoxyphenyl)-3-methyl-2,5,6,7-tetrahydro-4H-pyrrolo[3,4-c]pyridin-4-one] the same measures were 7.76, 7.49, 7.04 and 27%.
